How the values were obtained:
Rattus norvegicus [1] = assay: Percent inhibition of gastric lesions induced by ethanol was measured, after administration of 2.5 mg/kg po in rats; type: functional; conditions: Stomach
Rattus norvegicus [2] = assay: Percent inhibition of gastric lesions induced by ethanol was measured, after administration of 5 mg/kg po in rats; type: functional; conditions: Stomach
Rattus norvegicus [3] = assay: Percent inhibition of gastric lesions induced by endomethacin was measured, after administration of 5 mg/kg po in rats; type: functional; conditions: Stomach
Rattus norvegicus [4] = assay: Reduction in length (control value = 126+/-9.1) of gastric lesions induced by ethanol was measured, after administration of 5 mg/kg po in rats; type: functional, Stomach
Rattus norvegicus [5] = assay: Reduction in length ((control value = 126+/-9.1)of gastric lesions induced by ethanol was measured, after administration of 2.5 mg/kg po in rats; type: functional, Stomach
Rattus norvegicus [6] = assay: Reduction in length (control value = 88.9+/-5.5) of gastric lesions induced by endomethacin was measured, after administration of 5 mg/kg po in rats; type: functional, Stomach
Rattus norvegicus [7] = assay: pH of the gastric juice (Control value = 1.44+/-0.01) of stomach content of pylorus ligated rats was measured (10 mg/kg po of the Compound was administered 1 hr before the pylorus ligation); type: ADME, organism-based; conditions: in vivo
Rattus norvegicus [8] = assay: Acid output from the stomach (control value = 119.7+/-11.7) in pylorus ligated rats (10 mg/kg po of the Compound was administered 1 hr before the pylorus ligation); type: functional
Rattus norvegicus [9] = assay: Acid output from the stomach (control value = 119.7+/-11.7) in pylorus ligated rats (5 mg/kg po of the Compound was administered 1 hr before the pylorus ligation); type: functional
Rattus norvegicus [10] = assay: Percent inhibition of gastric lesions (length = 102.2+/-8.1) induced by ethanol was measured, after administration of 5 mg/kg po in endomethacin pretreated rats; type: functional; conditions: Stomach
Rattus norvegicus [11] = assay: Percent inhibition of gastric lesions (length = 15.3+/-2.9) induced by ethanol was measured, after administration of 10 mg/kg po in rats; type: functional; conditions: Stomach
Rattus norvegicus [12] = assay: Percent inhibition of gastric lesions (length = 31.4+/-3.8) induced by ethanol was measured, after administration of 10 mg/kg po in L-NAME-pretreated rats; type: functional; conditions: Stomach
Rattus norvegicus [13] = assay: Percent inhibition of gastric lesions (length = 60.8+/-11.6) induced by ethanol was measured, after administration of 5 mg/kg po in L-NAME-pretreated rats; type: functional; conditions: Stomach
Rattus norvegicus [14] = assay: Percent inhibition of gastric lesions (length = 61.5+/-4.4) induced by ethanol was measured, after administration of 10 mg/kg po in NEM-pretreated rats; type: functional; conditions: Stomach
Rattus norvegicus [15] = assay: Percent inhibition of gastric lesions (length = 92.3+/-9) induced by ethanol was measured, after administration of 5 mg/kg po in NEM-pretreated rats; type: functional; conditions: Stomach
Rattus norvegicus [16] = assay: Percent inhibition of gastric lesions (length = 96.1+/-13.7) induced by ethanol was measured, after administration of 10 mg/kg po in endomethacin pretreated rats; type: functional; conditions: Stomach
Rattus norvegicus [17] = assay: Percent inhibition of gastric lesions induced by ethanol was measured, after administration of 10 mg/kg po in rats; type: functional; conditions: Stomach
Rattus norvegicus [18] = assay: Percent inhibition of gastric lesions induced by endomethacin was measured, after administration of 10 mg/kg po in rats; type: functional; conditions: Stomach
Rattus norvegicus [19] = assay: Percent inhibition of gastric lesions induced by endomethacin was measured, after administration of 2.5 mg/kg po in rats; type: functional; conditions: Stomach
Rattus norvegicus [20] = assay: Reduction in length (control value = 126.1+/-5.7) of gastric lesions induced by ethanol was measured, after administration of 10 mg/kg po in rats; type: functional, Stomach
Rattus norvegicus [21] = assay: Reduction in length (control value = 126.1+/-5.7) of gastric lesions induced by ethanol was measured, after administration of 2.5 mg/kg po in rats; type: functional, Stomach
Rattus norvegicus [22] = assay: Reduction in length (control value = 126.1+/-5.7) of gastric lesions induced by ethanol was measured, after administration of 5 mg/kg po in rats; type: functional, Stomach
Rattus norvegicus [23] = assay: Reduction in length (control value = 124.3+/-7.8) of gastric lesions induced by ethanol was measured, after administration of 10 mg/kg po in indomethacin-pretreated rats; type: functional, Stomach
Rattus norvegicus [24] = assay: Reduction in length (control value = 124.3+/-7.8) of gastric lesions induced by ethanol was measured, after administration of 5 mg/kg po in indomethacin-pretreated rats; type: functional, Stomach
Rattus norvegicus [25] = assay: Reduction in length (control value = 169.6+/-1.9) of gastric lesions induced by ethanol was measured, after administration of 10 mg/kg po in NEM-pretreated rats; type: functional, Stomach
Rattus norvegicus [26] = assay: Reduction in length (control value = 169.6+/-1.9) of gastric lesions induced by ethanol was measured, after administration of 5 mg/kg po in NEM-pretreated rats; type: functional, Stomach
Rattus norvegicus [27] = assay: Reduction in length (control value = 188.7+/-10.5) of gastric lesions induced by ethanol was measured, after administration of 5 mg/kg po in L-NAME-pretreated rats; type: functional, Stomach
Rattus norvegicus [28] = assay: Reduction in length (control value = 206.7+/-6.3) of gastric lesions induced by endomethacin was measured, after administration of 5 mg/kg po NEM-pretreated in rats; type: functional, Stomach
Rattus norvegicus [29] = assay: Reduction in length (control value = 70.8+/-5.3) of gastric lesions induced by endomethacin was measured, after administration of 10 mg/kg po in rats; type: functional, Stomach
Rattus norvegicus [30] = assay: Reduction in length (control value = 70.8+/-5.3) of gastric lesions induced by endomethacin was measured, after administration of 2.5 mg/kg po in rats; type: functional, Stomach
Rattus norvegicus [31] = assay: Reduction in length (control value = 70.8+/-5.3) of gastric lesions induced by endomethacin was measured, after administration of 5 mg/kg po in rats; type: functional, Stomach
Rattus norvegicus [32] = assay: Volume of the gastric juice (Control value = 4.9+/-0.3) of stomach content of pylorus ligated rats was measured (10 mg/kg po of the Compound was administered 1 hr before the pylorus ligation); type: functional
Rattus norvegicus [33] = assay: Volume of the gastric juice (Control value = 4.9+/-0.3) of stomach content of pylorus ligated rats was measured (5 mg/kg po of the Compound was administered 1 hr before the pylorus ligation); type: functional
Rattus norvegicus [34] = assay: pH of the gastric juice (Control value = 1.44+/-0.01) of stomach content of pylorus ligated rats was measured ( 5 mg/kg po of the Compound was administered 1 hr before the pylorus ligation); type: ADME, organism-based; set-up: dose 5 mg/kg, route oral; conditions: in vivo
Rattus norvegicus [35] = assay: Percent inhibition of gastric lesions (length = 35.7+/-2.3) induced by ethanol was measured, after administration of 5 mg/kg po in rats; type: functional; conditions: Stomach
Rattus norvegicus [36] = assay: Reduction in length (control value = 138+/-12.1) of gastric lesions induced by ethanol was measured, after administration of 10 mg/kg po in rats; type: functional, Stomach
Rattus norvegicus [37] = assay: Reduction in length (control value = 62.8+/-12.4) of gastric lesions induced by endomethacin was measured, after administration of 10 mg/kg po in rats; type: functional, Stomach
Rattus norvegicus [38] = assay: Reduction in length ((control value = 126+/-9.1) of gastric lesions induced by ethanol was measured, after administration of 2.5 mg/kg po in rats; type: functional, Stomach
Rattus norvegicus [39] = assay: Reduction in length (control value = 54.6+/-16.5) of gastric lesions induced by endomethacin was measured, after administration of 10 mg/kg po in rats; type: functional, Stomach
Rattus norvegicus [40] = assay: Reduction in length (control value = 107+/-14.5) of gastric lesions induced by ethanol was measured, after administration of 2.5 mg/kg po in rats; type: functional, Stomach

C[C@H](CCC1(O)OC2CC3C4CC=C5C[C@@H](O[C@@H]6O[C@H](CO)[C@@H](O)[C@H](O)[C@H]6O[C@@H]6O[C@@H](C)[C@H](O)[C@@H](O)[C@H]6O)CC[C@]5(C)C4CC[C@]3(C)C2[C@@H]1C)CO[C@@H]1O[C@H](CO)[C@@H](O)[C@H](O)[C@H]1O (some centres not stated) [TRIGOFOENOSIDE A] was tested, and the inhibition in vivo at 2.5 mg/kg (Rattus norvegicus [1]) was 26.2%, the inhibition in vivo at 5 mg/kg (Rattus norvegicus [2]) was 11.7% and the inhibition in vivo at 5 mg/kg (Rattus norvegicus [3]) was 16%. The Length (Rattus norvegicus [4]) was 111 mm, the Length (Rattus norvegicus [5]) was 93 mm and the Length (Rattus norvegicus [6]) was 74.7 mm.
Compound C[C@@H]1CC[C@@]2(OC1)OC1C[C@H]3[C@@H]4CC=C5C[C@@H](O[C@@H]6O[C@H](CO)[C@@H](O[C@@H]7O[C@@H](CO)[C@H](O)[C@H]7O)[C@H](O)[C@H]6O[C@@H]6O[C@@H](C)[C@H](O)[C@@H](O)[C@H]6O)CC[C@]5(C)[C@H]4CC[C@]3(C)C1[C@@H]2C (some centres not stated) has a pH (Rattus norvegicus [7]) of 1.48, an Acid output (Rattus norvegicus [8]) of 82.1 u equiv hr-1 and an Acid output (Rattus norvegicus [9]) of 100.5 u equiv hr-1. The inhibition in vivo at 5 mg/kg (Rattus norvegicus [10]) was 17.8%, the inhibition in vivo at 10 mg/kg (Rattus norvegicus [11]) was 86.9% and the inhibition in vivo at 10 mg/kg (Rattus norvegicus [12]) was 83.4%. It also gave an inhibition in vivo at 5 mg/kg (Rattus norvegicus [13]) of 67.8%, an inhibition in vivo at 10 mg/kg (Rattus norvegicus [14]) of 63.7% and an inhibition in vivo at 5 mg/kg (Rattus norvegicus [15]) of 45.6%. It also gave an inhibition in vivo at 10 mg/kg (Rattus norvegicus [16]) of 22.7%, an inhibition in vivo at 10 mg/kg (Rattus norvegicus [17]) of 91% and an inhibition in vivo at 2.5 mg/kg (Rattus norvegicus [1]) of 39.7%. The inhibition in vivo at 5 mg/kg (Rattus norvegicus [2]) was 63.1%, the inhibition in vivo at 10 mg/kg (Rattus norvegicus [18]) was 84.6% and the inhibition in vivo at 2.5 mg/kg (Rattus norvegicus [19]) was 60.6%. It also gave an inhibition in vivo at 5 mg/kg (Rattus norvegicus [3]) of 67.2%, a Length (Rattus norvegicus [20]) of 11.4 mm and a Length (Rattus norvegicus [21]) of 76.1 mm. It also gave a Length (Rattus norvegicus [22]) of 46.5 mm, a Length (Rattus norvegicus [23]) of 96.1 mm and a Length (Rattus norvegicus [24]) of 102 mm. It also gave a Length (Rattus norvegicus [25]) of 31.4 mm, a Length (Rattus norvegicus [26]) of 92.3 mm and a Length (Rattus norvegicus [27]) of 60.8 mm. It also gave a Length (Rattus norvegicus [28]) of 61.5 mm, a Length (Rattus norvegicus [29]) of 10.9 mm and a Length (Rattus norvegicus [30]) of 27.9 mm. For the same compound, the Length (Rattus norvegicus [31]) was 23.2 mm, the Volume (Rattus norvegicus [32]) was 3.6 ml 4hr-1 and the Volume (Rattus norvegicus [33]) was 4.4 ml 4hr-1. For the same compound, the pH (Rattus norvegicus [34]) was 1.47 and the inhibition in vivo at 5 mg/kg (Rattus norvegicus [35]) was 69.3%.
CC1CC[C@@]2(OC1)OC1CC3C4CC=C5C[C@@H](O)CC[C@]5(C)C4CC[C@]3(C)[C@@]1(O)[C@@H]2C (some centres not stated) showed an inhibition in vivo at 10 mg/kg (Rattus norvegicus [17]) of 2.5%, an inhibition in vivo at 10 mg/kg (Rattus norvegicus [18]) of 6.8% and a Length (Rattus norvegicus [36]) of 134 mm. It also gave a Length (Rattus norvegicus [37]) of 67.1 mm.
With C[C@H](CCC1(O)OC2CC3C4CC=C5C[C@@H](O[C@@H]6O[C@H](CO)C(O[C@@H]7O[C@@H](CO)[C@H](O)[C@H]7O)[C@@H](O)[C@H]6O[C@@H]6O[C@@H](C)[C@H](O)[C@@H](O)[C@H]6O)CC[C@]5(C)C4CC[C@]3(C)C2[C@@H]1C)CO[C@@H]1O[C@H](CO)[C@@H](O)[C@H](O)[C@H]1O (some centres not stated) [PARISAPONIN I] the inhibition in vivo at 2.5 mg/kg (Rattus norvegicus [1]) was 9.2%, the inhibition in vivo at 5 mg/kg (Rattus norvegicus [2]) was 15.6% and the inhibition in vivo at 5 mg/kg (Rattus norvegicus [3]) was 7.2%. The Length (Rattus norvegicus [4]) was 106 mm, the Length (Rattus norvegicus [38]) was 114 mm and the Length (Rattus norvegicus [6]) was 82.5 mm.
C[C@@H]1CC[C@@]2(OC1)O[C@H]1C[C@H]3[C@@H]4CC=C5C[C@@H](O)CC[C@]5(C)[C@H]4CC[C@]3(C)[C@H]1[C@@H]2C [DISOGENIN] was tested, and the inhibition in vivo at 10 mg/kg (Rattus norvegicus [17]) was 28.1%, the inhibition in vivo at 10 mg/kg (Rattus norvegicus [18]) was 8.6% and the Length (Rattus norvegicus [39]) was 49.9 mm. For the same compound, the Length (Rattus norvegicus [40]) was 76.9 mm.

— ChEMBL document CHEMBL1144970, “Protective effects of steroid saponins from Paris polyphylla var. yunnanensis on ethanol- or indomethacin-induced gastric mucosal lesions in rats: structural requirement for activity and mode of action” (Bioorg Med Chem Lett, 2003)
